Assay results reported in patent publication US20140235630A1, “COMPOSITIONS AND METHODS FOR THE TREATMENT OF PROLIFERATIVE DISEASES” (Beth Israel Deaconess Medical Center, Inc., priority 2011, published 2014).

Legend:
[1] = system: mouse lung tumors with transgenic H1047R mutant of PIK3CA; conditions: within two days; cited from earlier work
blood vessels in tumors = conditions: in vivo; cited from earlier work
HCC1937 cells = assay: DNA damage response immunoblots with or without ionizing radiation (10 Gy); format: cell-based, human
Experimental: FIG. 5A are immunoblots showing the effects of Compound A, ATM inhibitor KU-55933, and their combination on the DNA damage response. HCC1937 were treated for 18 hours with Compound A at 2.5 μM, KU55933 at 10 μM, or their combination, subjected to ionizing irradiation with 10 Gy or mock, lysed 6 hours later, and subjected to immunoblotting. […] Immunoblots were performed using the Nupage System (Invitrogen). The protein concentration was determined using Bradford reagent (Biorad). A total of 20 μg of protein were loaded, except for PAR, Phospho ATM and Phospho DNA-PK/PRKDC western blots, where 40 μg were loaded. Tumor tissue lysates were prepared similarly with the exception of tissue homogenization by using an electric homogenizer for 30 secs after addition of the lysis buffer. Primary antibodies used for western blotting were total AKT (9272), Cleaved […] 3 (9661), total ERK (4695), Phospho AKT Ser473 (4058), Phospho ERK Thr202/Tyr204 (9106), Phospho-Histone H2AX Ser139 (2577), PTEN (9559) from Cell Signaling. Phospho ATM […] (2152-1), Phospho DNA-PK/PRKDC […] (3892-1) from Epitomics, Inc. CD31 (ab28364), Actin (ab6276), INPP4B (ab81269) from Abcam; pADPr (sc56198) from Santacruz Biotechnology; and Ki-67 (RM-9106) was purchased from Thermo Scientific.

Row | Compound | FDG-PET signal [1] | sprouting of new blood vessels in tumors (blood vessels in tumors) | H2AX phosphorylation in response to ionizing radiation (HCC1937 cells; 18 hours pre-treatment, 10 Gy, lysed 6 hours later) | auto-phosphorylation of ATM (HCC1937 cells; KU-55933 10 μM, 18 hours)
1 | Cn1c(=O)n(-c2ccc(C(C)(C)C#N)cc2)c2c3cc(-c4cnc5ccccc5c4)ccc3ncc21 [BEZ235] | caused a reduction in the FDG-PET signal | inhibits the sprouting of new blood vessels |  | 
2 | O=c1cc(-c2cccc3c2Sc2ccccc2S3)oc(N2CCOCC2)c1 [KU-55933, reference compound] |  |  | prevented the increase | decrease
